Assay results reported in paper PMC5430407 (ACS Medicinal Chemistry Letters, 2017).

What was measured:
Caco-2 cells = test: Caco-2 permeability; format: in vitro ADME; conditions: A-B, 50 µM, 120 min
IDO1 in HeLa cells = IDO1 in HeLa cells (Homo sapiens, UniProt P14902); test: HeLa cell-based IDO1/kynurenine assay; conditions: calculated using HeLa pIC50; for LLE (lipophilic ligand efficiency): LLE = pIC50 – cLogP
CT26 tumor = CT26 tumor growth in immune-compromised mice; format: in vivo, mouse; conditions: immune-compromised mice (nu/nu)
[1] = tested on: CEREP panel of over 50 receptors and enzymes; test: CEREP panel
plasma kynurenine = test: PK/PD study in mice, plasma kynurenine; format: in vivo, mouse; conditions: wild-type mice, once daily oral dosing at 50 mg/kg
[2] = Allometric scaling, predicted human dose; conditions: allometric scaling to cover the WB IC50 at trough
[3] = 28-day IND toxicology study in mice; format: in vivo, mouse
[4] = 28-day IND toxicology study in dogs; format: in vivo, dog

IDO1 in HeLa cells, sequence (P14902 whole entry): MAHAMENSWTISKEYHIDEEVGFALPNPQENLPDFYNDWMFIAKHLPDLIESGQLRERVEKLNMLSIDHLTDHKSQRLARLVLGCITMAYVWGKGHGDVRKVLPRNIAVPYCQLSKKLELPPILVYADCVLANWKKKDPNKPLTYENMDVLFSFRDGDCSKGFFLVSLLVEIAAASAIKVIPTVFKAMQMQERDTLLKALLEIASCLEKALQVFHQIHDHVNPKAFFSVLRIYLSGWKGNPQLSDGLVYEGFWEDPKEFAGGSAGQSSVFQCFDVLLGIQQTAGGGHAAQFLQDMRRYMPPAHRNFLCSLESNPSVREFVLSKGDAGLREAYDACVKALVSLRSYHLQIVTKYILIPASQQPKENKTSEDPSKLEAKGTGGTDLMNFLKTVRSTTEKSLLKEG

Compound	Caco2 Pm (Caco-2 cells)	LE (ligand efficiency) (IDO1 in HeLa cells)	further results
COCCNc1nonc1/C(=N/O)Nc1ccc(F)c(Br)c1 [Compound 4a]	44 × (10)^−6 cm/s	0.45	
OCCNc1nonc1/C(=N/O)Nc1ccc(F)c(Br)c1 [Compound 4b]	31 × (10)^−6 cm/s	0.51	LLE (lipophilic ligand efficiency) (IDO1 in HeLa cells): 5.8
NCCNc1nonc1/C(=N/O)Nc1ccc(F)c(Br)c1 [Compound 4c]	1.8 × (10)^−6 cm/s	0.47	
CC(=O)NCCNc1nonc1/C(=N/O)Nc1ccc(F)c(Br)c1 [Compound 4d]	19 × (10)^−6 cm/s	0.45	
CS(=O)(=O)NCCNc1nonc1C(=NO)Nc1ccc(F)c(Br)c1 [Compound 4e]			LLE (lipophilic ligand efficiency) (IDO1 in HeLa cells): 5.8
NS(=O)(=O)NCCNc1nonc1C(=NO)Nc1ccc(F)c(Br)c1 [Compound 4f, epacadostat]			tumor growth inhibition, treated vs control animals (CT26 tumor): no difference; in vitro toxicology result, CEREP panel [1]: clean; plasma kynurenine level reached (basal level of IDO null mice) (plasma kynurenine): ~400 nM; predicted oral dosing in humans [2]: 50 mg twice-a-day; tolerability [3]: well-tolerated; tolerability [4]: well-tolerated
NS(=O)(=O)NCCNc1nonc1C(=NO)Nc1ccc(F)c(Cl)c1 [Compound 4g]	4.3 × (10)^−6 cm/s		
